Reference: patent publication US20220280513A1, “ENHANCING THE ANTIVIRAL EFFICACY OF RNA VIRUS INHIBITION BY COMBINATION WITH MODULATORS OF PYRIMIDINE METABOLISM” (The Board of Trustees of the Leland Stanford Junior …, priority 2019, published 2022)

Columns and labels:
DENV-2 virus [1] = experiment: Pilot antiviral assay, DENV-Luc replication in A549 cells (FIG. 2); assay type: cell-based, dengue serotype 2 (DENV-2) strain 16681
Experimental: We therefore focused our efforts on evaluating CPU in combination with GSK983. Using an infectious clone of dengue serotype 2 (DENV-2) strain 16681 engineered to express a luciferase reporter, the efficacy and cytotoxicity of combinations of GSK983 and CPU were assessed in infected or uninfected cultures of the A549 lung carcinoma cell line (FIG. 2). […] However, a combination of 0.2 μM GSK and 250 μM CPU inhibited ca. 50% of virus replication.
(§1) DENV-Luc reporter virus generation: The design of the pDENV-Luc infectious clone derived from dengue serotype 2 (DENV-2) strain 16681 was described in detail by Marceau et al (Marceau et al., 2016). The plasmid was linearized with Xbal and in vitro transcribed into the genomic RNA of DENV-Luc virus using the T7 Megascript Kit (Ambion) in the presence of m7G(5′)ppp(5′)G RNA Cap Structure Analog (NEB). 5 μg DENV-Luc RNA was electroporated into 2×10^6 Vero cells. The transfected cells were resuspended with Dulbecco's modified Eagle's medium (DMEM; Invitrogen) with 10% FBS and 100 U/ml penicillin-streptomycin and transferred into a T-175 flask incubated at 37° C. with 5% CO2. Supernatants were collected and replenished with fresh medium every 24 h from day 17 to 24 post-transfection, pooled together, clarified by centrifugation and stored in aliquots at −80° C. The amount of infectious DENV-Luc virus in the stock was titrated using the TCID50 assay and calculated by the Spearman & Kärber algorithm as described previously (Hierholzer and Killington, 1996).
Pilot Antiviral Assays (for FIG. 2): A549 cells were plated overnight at 20,000 cells/well in 24-well plates in complete DMEM and incubated for 24 h at 37° C. Cell were then treated with pyrimidine de novo synthesis and/or salvage inhibitors in DMEM supplemented with 20 μM uridine. Four hours after drug addition, cells were infected with DENV-2 virus at a MOI=0.01. After 48 h, DENV-Luc replication was monitored by the production of Renilla luciferase, which was measured using the Renilla-Glo Luciferase Assay System (Promega) according to the specifications of the manufacturer. For the accompanying cell viability assay, A549 cells were seeded into 24-well plates at a density of 20,000 cells/well incubated for 24 h at 37° C. Cell were then treated with pyrimidine de novo synthesis and/or salvage inhibitors in DMEM supplemented with 20 μM uridine. Following 48h treatment, cells were harvested, and the density of viable cells was determined by flow cytometry (FSC/SSC) using a BD Accuri C6 Flow Cytometer.

DENV-2 virus [2] = experiment: DENV antiviral assay, DENV-Luc replication in A549 cells (FIGS. 8 and 9); assay type: cell-based, dengue serotype 2 (DENV-2) strain 16681
Experimental: as §1
DENV antiviral assays (For FIGS. 8 and 9): A549 cells were plated overnight at 5,000 cells/well in 96-well plates in complete DMEM and incubated for 24 h at 37° C. Cells were then treated with pyrimidine de novo synthesis inhibitors, and/or salvage inhibitors, and/or R1479 in DMEM supplemented with 20 μM uridine. Four hours after drug addition, cells were infected with DENV-2 virus at a MOI=0.1. After 72 h, DENV-Luc replication was monitored by the production of Renilla luciferase, which was measured using the Renilla-Glo Luciferase Assay System (Promega) according to the specifications of the manufacturer. For the accompanying cell viability assay, A549 cells were seeded at 5,000 cells/well in 96-well plates in complete DMEM and incubated for 24 h at 37° C. Cell were then treated with pyrimidine de novo synthesis inhibitors, and/or salvage inhibitors, and/or R1479 in DMEM supplemented with 20 μM uridine. Following 48 h treatment, cell viability was monitored by ATP levels, which was measured using the CellTiter-Glo Luciferase Assay System (Promega) according to the specifications of the manufacturer.

[3] = dose of 1 g/kg; cited from earlier work

For O=c1ccn([C@@H]2C=C(CO)[C@@H](O)[C@H]2O)c(=O)[nH]1 [CPU, 1-((1R,4R,5S)-4,5-dihydroxy-3-(hydroxymethyl)cyclopent-2-en-1-yl)pyrimidine-2,4(1H,3H)-dione], the “decrease of DENV-2 titer, synergy” value (DENV-2 virus [1]; CPU combined with GSK983, exogenous uridine) was “synergized with GSK983”, the virus replication (DENV-2 virus [1]; CPU dose of 1 mM in combination with GSK, 20 μM exogenous uridine) was “suppressed almost completely” and the “inhibition of replication of DENV-2 virus, single agent” value (DENV-2 virus [1]; alone, 20 μM exogenous uridine) was “neither GSK nor CPU alone inhibited replication”. For the same compound, the “inhibition of virus replication” value (DENV-2 virus [1]; combination of 0.2 μM GSK and 250 μM CPU, 20 μM exogenous uridine) was “ca. 50%”, the “dengue virus replication, combination” value (DENV-2 virus [2]; CPU (500 μM) combined with 1 μM GSK983, 20 μM uridine) was “suppressed dengue virus” and the “antiviral activity as single agent” value (DENV-2 virus [2]; single agents, 20 μM uridine) was “neither GSK983 nor CPU were effective”. For the same compound, the toxicity in mice [3] was “does not show appreciable toxicity”.
